According to US6399623B1, “Wood treatment” (Agrevo UK Ltd., priority 1998, dated 2002):

Key:
[1] = test system: sapstain fungi; assay: In vivo test of activity against sapstain fungi (dipped pine bundles); settings: 50% suspension concentrate diluted to 0.25%, 60 s dip, after 4 weeks; compared with wood dipped only in water
Source text: Bundles consisting of 7 pieces of freshly cut pine (approximate sizes of 20 cm×30 cm) were dipped in a 50% suspension concentrate of fluquinconazole, diluted to 0.25%, for 60 seconds, ensuring each piece of wood was separated from its contacting pieces. The wood was removed from the liquid and allowed to drain for 10 seconds and then placed in an unsealed polythene bag at room temperature. The bag was used in order to maintain a high relative humidity, which promotes growth of sapstain. The wood was removed for examination after 4 weeks and divided into two in order to expose the centre of the bundles. These were assessed for sapstain infection.

[2] = test system: Gloephyllum trabeum; assay: In vitro malt agar test, colony diameter; format: cell-based; settings: assessed after 11 days
Method: A 50% SC of fluquinconazole (fq) was incorporated into malt agar at various rates and the agar placed into Petri dishes. Into the centre of each plate was implanted a 4 mm plug of the mycelium of a wood rotting fungus. […] The experiment was also carried out with a fluquinconazole formulation containing di(2-ethylhexyl)octyl phosphonate (ph) with and without prochloraz (pz).

[3] = test system: wood rotting fungi (mainly basidiomycetes); assay: In vivo test of activity against wood destroying fungi (dipped pine pieces); settings: 100 ppm fluquinconazole, formulation containing di(2-ethylhexyl)octyl phosphonate, 5 weeks in sealed bag, compared with standards without pesticide
Method: Pieces of pine were dipped into a fluquinconazole formulation containing di(2-ethylhexyl)octyl phosphonate at different rates and then removed and put, whilst soaking wet, into a polythene bag which was sealed and left in a greenhouse for 5 weeks. The degree of control of wood rotting fungi (mainly basidiomycetes) was then assessed.

[4] = test system: Coriolus versicolor; assay: In vitro malt agar test, colony diameter; format: cell-based; settings: assessed after 6 days
Method: (§1) A 50% SC of fluquinconazole (fq) was incorporated into malt agar at various rates and the agar placed into Petri dishes. Into the centre of each plate was implanted a 4 mm plug of the mycelium of a wood rotting fungus. The plates were kept at 20° C. in a darkened room for 6 days when the control of the fungus by the fluquinconazole was assessed. The experiment was also carried out with a fluquinconazole formulation containing di(2-ethylhexyl)octyl phosphonate (ph) with and without prochloraz (pz).

[5] = test system: Coniophora puteana; assay: In vitro malt agar test, colony diameter; format: cell-based; settings: assessed after 6 days
Method: as §1

[6] = test system: Poria placenta; assay: In vitro malt agar test, colony diameter; format: cell-based; settings: assessed after 6 days
Method: as §1

Q: `O=c1c2cc(F)ccc2nc(-n2cncn2)n1-c1ccc(Cl)cc1Cl` [fluquinconazole, 3-(2,4-dichlorophenyl)-6-fluoro-2-(1H-1,2,4-triazol-1-yl)-4(3H)-quinazolinone] was tested. Which “control of the sapstain” value [1] did it give?
A: Its value is greater than 60%.

Q: What about the “% Control based on colony diameter” value ([2]; 1 ppm) of the same compound?
A: The value was 80.5%.

Q: What about the “% Control based on colony diameter” value ([2]; 5 ppm) of the same compound?
A: The value was 94.0%.

Q: What about the “% Control based on colony diameter” value ([2]; 10 ppm) of the same compound?
A: The value was 95.0%.

Q: What about the “% Control based on colony diameter” value ([2]; 25 ppm) of the same compound?
A: Its value is 92.5%.

Q: And the “% Control based on colony diameter” value ([2]; 100 ppm)?
A: The value was 94.0%.

Q: And the “control of wood rotting fungi” value [3]?
A: The value was 73.1%.

Q: And the “% Control based on colony diameter” value ([4]; 1 ppm)?
A: Its value is 100.0%.

Q: And the “% Control based on colony diameter” value ([4]; 5 ppm)?
A: The value was 100.0%.

Q: And the “% Control based on colony diameter” value ([4]; 10 ppm)?
A: The value was 100.0%.

Q: What about the “% Control based on colony diameter” value ([4]; 25 ppm) of the same compound?
A: Its value is 100.0%.

Q: And the “% Control based on colony diameter” value ([4]; 100 ppm)?
A: The value was 100.0%.

Q: And the “% Control based on colony diameter” value ([5]; 1 ppm)?
A: The value was 50.4%.

Q: And the “% Control based on colony diameter” value ([5]; 5 ppm)?
A: The value was 75.6%.

Q: What about the “% Control based on colony diameter” value ([5]; 10 ppm) of the same compound?
A: Its value is 84.7%.

Q: What about the “% Control based on colony diameter” value ([5]; 25 ppm) of the same compound?
A: The value was 68.7%.

Q: And the “% Control based on colony diameter” value ([5]; 100 ppm)?
A: The value was 77.9%.

Q: What about the “% Control based on colony diameter” value ([6]; 1 ppm) of the same compound?
A: Its value is 99.4%.

Q: And the “% Control based on colony diameter” value ([6]; 5 ppm)?
A: The value was 100.0%.

Q: What about the “% Control based on colony diameter” value ([6]; 10 ppm) of the same compound?
A: Its value is 100.0%.

Q: And the “% Control based on colony diameter” value ([6]; 25 ppm)?
A: The value was 100.0%.

Q: What about the “% Control based on colony diameter” value ([6]; 100 ppm) of the same compound?
A: The value was 100.0%.
